Consider 41 compounds from patent US10682319B2, “Necrosis inhibitors” (National Institute of Biological Sciences, Beijing, priority 2014, dated 2020).

Where two headings read alike, the source gives them in different places.

The experiment relates to HT-29 cells. The experiment is described as follows: Necrosis assay (TNF-α/Smac mimetic/z-VAD induced necrosis, cell viability by ATP level). The format is cell-based. Particulars: HT-29, TNF-α + Smac mimetic + z-VAD, 24 hrs, ATP level, read-out: EC50 (inhibition of necrosis in HT-29 cells). How it is done: HT-29 cells were cultured in McCoy's 5 A culture medium (Invitrogen). On day one, HT-29 cells were plated in 96-well assay plates at density of 2,500-3,500 cells per well. On day two, necrosis were induced by adding 20 ng/ml TNF-α (T), 100 nM Smac mimetic (S), and […] z-VAD (Z). At the same time, […] compound from a chemical library of ˜200,000 compounds was delivered into each well. After 24 hrs treatment, cell viability was determined by measuring ATP level using the CellTiter-Glo Luminescent Cell Viability Assay kit. A CellTiter-Glo Assay (Promega) was performed according to the manufacturer's instructions Luminescence was recorded with a PerkinElmer EnSpire Multimode Plate Reader. Survived cells were normalized to those cells treated with DMSO. Nec-1 was used as a positive control for screening necrosis inhibitors. Data are represented as mean±standard deviation of duplicates
Dose-dependent inhibition of necrosis by the compounds in HT-29 cells were determined by measuring ATP levels as described above.

Where [1] appears, read: Homo sapiens, HT-29, 24 h, values given as ranges in uM.

For `CCC(C)(C)C(=O)N[C@@H](CC(=O)NCCOc1ccccc1)c1ccccc1` [Compound 126, (S)-2,2-dimethyl-N-(3-oxo-3-((2-phenoxyethyl)amino)-1-phenylpropyl)butanamide], under setting [1], the EC50 (as a rule, the concentration giving half of the maximal effect) was 1 to 100 µM.

`CCC(C)(C)C(=O)N(C)Cc1ccncc1F` [Compound 36, N-((3-fluoropyridin-4-yl)methyl)-N,2,2-trimethylbutanamide]: the EC50 under setting [1] was in the range of 1 to 100 µM.

Consider `C#CCN(Cc1ccccc1F)C(=O)C(C)(C)CC` [Compound 11, N-(2-fluorobenzyl)-2,2-dimethyl-N-(prop-2-yn-1-yl)butanamide], for which the EC50 under setting [1] fell in the range of 1 to 10 µM.

Regarding `CC1CCCN(C(=O)N(C)Cc2cc(F)cc(F)c2F)C1` (centres unmarked) [Compound 118, N,3-dimethyl-N-(2,3,5-trifluorobenzyl)piperidine-1-carboxamide], under setting [1], the EC50 lay within 1 to 100 µM.

Take `CCC(C)(C)C(=O)NCc1ccc(F)cc1F` [Compound 7, N-(2,4-difluorobenzyl)-2,2-dimethylbutanamide]: the EC50 under setting [1] lay within 1 to 10 µM.

For `CN(Cc1cc(F)cc(F)c1F)[S+]([O-])C(C)(C)C` (centres unmarked) [Compound 78, N,2-dimethyl-N-(2,3,5-trifluorobenzyl)propane-2-sulfinamide], the EC50 under setting [1] lay in the range of 1 to 100 µM.

For the compound `CCC(C)(C)C(=O)N(Cc1ccc(F)cc1)OC` [Compound 130], the EC50 under setting [1] lay in the range of 1 to 100 µM.

Take `CCC(C)(C)C(=O)N[C@@H](CC(=O)NC1CCCCC1)c1ccccc1` [Compound 104, (S)—N-(3-(cyclohexylamino)-3-oxo-1-phenylpropyl)-2,2-dimethylbutanamide]: under setting [1], the EC50 fell in the range of 1 to 100 µM.

`C=CC(C)(C)C(=O)N(O)Cc1sc(C)cc1C` [Compound 146]: the EC50 under setting [1] fell in the range of 1 to 100 µM.

`CN(Cc1cc(F)cc(F)c1F)C(=O)C(C)(C)C` [Compound S2, N-methyl-N-(2,3,5-trifluorobenzyl)pivalamide]: under “values given as ranges in nM”, the EC50 lay in the range of 0.001 to 1 µM.

With `CC(C)N(C)C(=O)N(C)Cc1cc(F)cc(F)c1F` [Compound 120, isopropyl-1,3-dimethyl-3-(2,3,5-trifluorobenzyl)urea], the EC50 under setting [1] lay within 1 to 10 µM.

`CCC(C)(C)C(=O)N(C)C(C)c1ccccc1` (centres unmarked) [Compound 53, N,2,2-trimethyl-N-(1-phenylethyl)butanamide]: the EC50 under setting [1] was in the range of 1 to 100 µM.

Consider `CCNC(=O)C[C@H](NC(=O)C(C)(C)CC)c1ccccc1` [Compound 103, (S)—N-(3-(ethylamino)-3-oxo-1-phenylpropyl)-2,2-dimethylbutanamide], for which, under setting [1], the EC50 is 1 to 100 µM.

In the case of `CCC(C)(C)C(=O)N(O)CC1CCCO1` (centres unmarked) [Compound 142], the EC50 under setting [1] lay in the range of 1 to 100 µM.

Regarding `CON(Cc1cc(F)cc(F)c1F)C(=O)C(C)(C)C(C)(F)F` [Compound S20], the EC50 under setting [1] was 1 to 100 µM.

Turning to `CCC(C)(C)C(=O)N(C)Cc1cccc(C)c1C` [Compound 31, N-(2,3-dimethylbenzyl)-N,2,2-trimethylbutanamide], under setting [1], the EC50 lay within 1 to 100 µM.

Consider `CCC(C)(C)C(=O)N(O)CC1=CCCC1` [Compound 140], for which, under setting [1], the EC50 lay within 1 to 100 µM.

As to `CC(C)NC(=O)N(C)Cc1ccccc1F` [Compound 114, 1-(2-fluorobenzyl)-3-isopropyl-1-methylurea], under setting [1], the EC50 was 1 to 100 µM.

Take `CCC1CCCCN1C(=O)N(C)Cc1cc(F)cc(F)c1F` (centres unmarked) [Compound 116, 2-ethyl-N-methyl-N-(2,3,5-trifluorobenzyl)piperidine-1-carboxamide]: under setting [1], the EC50 is 1 to 100 µM.

For the compound `CCN(Cc1cc(F)cc(F)c1F)C(=O)N(C)C(C)C` [Compound 115, 1-ethyl-3-isopropyl-3-methyl-1-(2,3,5-trifluorobenzyl)urea], the EC50 under setting [1] lay within 1 to 100 µM.

For `CCC(C)(C)C(=O)N(C)Cc1cccc(C(=O)OC)c1` [Compound 23, methyl 3-((N,2,2-trimethylbutanamido)methyl)benzoate], the EC50 under setting [1] was in the range of 1 to 100 µM.

Take `CON(Cc1cc(F)c(F)c(F)c1)C(=O)C(C)(C)C(C)(F)F` [Compound S19]: the EC50 under setting [1] is 1 to 100 µM.

For the compound `CN(Cc1ccccc1F)C(=O)CC(C)(C)C` [Compound 59, N-(2-fluorobenzyl)-N,3,3-trimethylbutanamide], the EC50 under setting [1] is 1 to 10 µM.

Turning to `CCC(C)(C)C(=O)N[C@@H](CC(=O)NCCOCCOC)c1ccccc1` [Compound 102, (S)—N-(3-((2-(2-methoxyethoxy)ethyl)amino)-3-oxo-1-phenylpropyl)-2,2-dimethylbutanamide], under setting [1], the EC50 is 1 to 100 µM.

With `CCC(C)(C)C(=O)N[C@@H](C(=O)NCCc1ccccc1)c1ccccc1` [Compound 125, (R)-2,2-dimethyl-N-(2-oxo-2-(phenethylamino)-1-phenylethyl)butanamide], the EC50 under setting [1] lay within 1 to 100 µM.

On to `CCC1(C(=O)N(C)Cc2cc(F)c(F)c(F)c2)CCC1` [Compound 88, 1-ethyl-N-methyl-N-(3,4,5-trifluorobenzyl)cyclobutanecarboxamide], for which the EC50 under setting [1] lay in the range of 1 to 100 µM.

On to `CCC(C)(C)C(=O)N(C)Cc1ccc(F)c(F)c1F` [Compound 49, N,2,2-trimethyl-N-(2,3,4-trifluorobenzyl)butanamide], for which, under “values given as ranges in nM”, the concentration for a half-maximal effect (EC50) was in the range of 0.001 to 1 µM.

Consider `CCC1(C(=O)N(C)Cc2cc(F)c(F)c(F)c2)CCCC1` [Compound 89, 1-ethyl-N-methyl-N-(3,4,5-trifluorobenzyl)cyclopentanecarboxamide], for which the EC50 under setting [1] is 1 to 10 µM.

For the compound `CCC(C)(C)C(=O)N(O)Cc1ccc(C)s1` [Compound 137], under setting [1], the EC50 was in the range of 1 to 100 µM.

Take `CCC(C)(C)C(=O)N(C)Cc1ccc(Cl)cc1F` [Compound 27, N-(4-chloro-2-fluorobenzyl)-N,2,2-trimethylbutanamide]: the EC50 (values given as ranges in nM) is 0.001 to 1 µM.

On to `CCC(C)(C)C(=O)N(C)Cc1c(F)cc(F)cc1F` [Compound 48, N,2,2-trimethyl-N-(2,4,6-trifluorobenzyl)butanamide], for which the EC50 under setting [1] is 1 to 10 µM.

Consider `CCC(C)(C)C(=O)N(C)Cc1cnc(C)s1` [Compound 44, N,2,2-trimethyl-N-((2-methylthiazol-5-yl)methyl)butanamide], for which the EC50 under setting [1] lay in the range of 1 to 10 µM.

`CCC(C)(C)C(=O)NCc1cccnc1` [Compound 9, 2,2-dimethyl-N-(pyridin-3-ylmethyl)butanamide]: the EC50 under setting [1] lay in the range of 1 to 10 µM.

As for `CCC(C)(C)C(=O)N(C)[C@@H](CO)c1cc(F)cc(F)c1F` [Compound 149], the EC50 under setting [1] was in the range of 1 to 100 µM.

For `CC(C)(C)C(=O)NCc1cc(F)cc(F)c1F` [Compound S1, N-(2,3,5-trifluorobenzyl)pivalamide], under setting [1], the EC50 lay in the range of 1 to 10 µM.

`CCC(C)(C)C(=O)N[C@@H](C(=O)NCc1ccccc1)c1ccccc1` [Compound 124, (R)—N-(2-(benzylamino)-2-oxo-1-phenylethyl)-2,2-dimethylbutanamide]: under setting [1], the EC50 was 1 to 100 µM.

Take `CC(C)(C)C(=O)NCc1ccccc1` [Compound 2, N-benzylpivalamide]: the EC50 under setting [1] lay in the range of 1 to 10 µM.

For the compound `CC(F)(F)C(C)(C)C(=O)N(O)Cc1ccccc1` [Compound S6, N-benzyl-3,3-difluoro-N-hydroxy-2,2-dimethylbutanamide], the EC50 (values given as ranges in nM) was 0.001 to 1 µM.

`CCC(C)(C)C(=O)N(C)Cc1ccc2ccccc2c1` [Compound 46, N,2,2-trimethyl-N-(naphthalen-2-ylmethyl)butanamide]: the EC50 under setting [1] was in the range of 1 to 100 µM.

Take `CN(Cc1ccccc1F)C(=O)C1CCCCC1` [Compound 60, N-(2-fluorobenzyl)-N-methylcyclohexanecarboxamide]: the EC50 under setting [1] fell in the range of 1 to 10 µM.

`CN(Cc1cc(F)cc(F)c1F)C(=O)C(C)(C)C(C)(F)F` [Compound S5, 3,3-difluoro-N,2,2-trimethyl-N-(2,3,5-trifluorobenzyl)butanamide]: the EC50 (values given as ranges in nM) is 0.001 to 1 µM.
